The subject of the assay is beet armyworm (Spodoptera exigua). Nature of the assay: Test D: control of beet armyworm on corn plant, foliar spray. Particulars: sprayed at 50 ppm, 1-day-old larvae, 6 days, visual rating. It is filed as in vivo. How it is done:
Test compounds were formulated using a solution containing 10% acetone, 90% water and 300 ppm X-77® Spreader Lo-Foam Formula non-ionic surfactant containing alkylarylpolyoxyethylene, free fatty acids, glycols and isopropanol (Loveland Industries, Inc., Greely, Colo. USA), unless otherwise indicated. The formulated compounds were applied in 1 mL of liquid through a SUJ2 atomizer nozzle with ⅛ JJ custom body (Spraying Systems Co. Wheaton, Ill., USA) positioned 1.27 cm (0.5 inches) above the top of each test unit. All experimental compounds in these tests were sprayed at 250 ppm (or lower) and replicated three times. After spraying of the formulated test compound, each test unit was allowed to dry for 1 hour and then a black, screened cap was placed on top. The test units were held for 6 days in a growth chamber at 25° C. and 70% relative humidity. Plant feeding damage was then visually assessed based on foliage consumed.
For evaluating control of beet armyworm (Spodoptera exigua) the test unit consisted of a small open container with a 4-5-day-old corn plant inside. This was pre-infested (using a core sampler) with 10-15 1-day-old larvae on a piece of insect diet.
Test compounds were formulated and sprayed at 250 ppm (or lower) as described for Test A. The applications were replicated three times. […]

Regarding `O=C(Nc1c(F)cc(F)cc1Br)c1cc(Br)nn1-c1ncccc1Cl` [Compound 7, N-(2-bromo-4,6-difluorophenyl)-1-(3-chloro-2-pyridinyl)-3-bromo-1H-pyrazole-5-carboxamide], the “feeding damage (plant protection)” value is recorded as not above 20%.

The values above are taken from patent publication US7754738B2, “Pyrazole and pyrrole carboxamide insecticides” (E.I. du Pont de Nemours and Company, priority 2002, dated 2010).
